The text below walks through data of PMC2790544 (Biochemistry, 2009).

The experiment concerns Sec(GLP1TM4-5)R. In words: cAMP response. It counts as cell-based, human. The following applies: COS cells, LANCE, basal 2.1±0.5. For orientation: In TR-FRET formats the signal depends on donor and acceptor labels being close together.

As for `CC(C)C[C@H](NC(=O)CNC(=O)[C@H](CCC(N)=O)NC(=O)[C@H](CC(C)C)NC(=O)[C@H](CC(C)C)NC(=O)[C@H](CCCNC(=N)N)NC(=O)[C@H](CCC(N)=O)NC(=O)[C@H](CC(C)C)NC(=O)[C@H](CCCNC(=N)N)NC(=O)[C@H](C)NC(=O)CNC(=O)[C@H](CCC(=O)O)NC(=O)[C@H](CCCNC(=N)N)NC(=O)[C@H](CC(C)C)NC(=O)[C@H](CCCNC(=N)N)NC(=O)[C@H](CO)NC(=O)[C@H](CC(C)C)NC(=O)[C@H](CCC(=O)O)NC(=O)[C@H](CO)NC(=O)[C@@H](NC(=O)[C@H](Cc1ccccc1)NC(=O)[C@@H](NC(=O)CNC(=O)[C@H](CC(=O)O)NC(=O)[C@H](CO)NC(=O)[C@@H](N)Cc1c[nH]cn1)[C@@H](C)O)[C@@H](C)O)C(=O)N[C@H](C(N)=O)C(C)C` [secretin], the “maximal cAMP level (Emax)” value is on record as 149±15 picomoles per million cells.
